Measurements reported in paper PMC8861095, “Neurotoxicological profile of the hallucinogenic compound 25I-NBOMe” (Scientific Reports, 2022).

Columns and labels:
[1] = system: rat primary cortical cultures; design: method as in PMID 31078573; conditions: 30 μM; did not recover after 19 h of washout period; cited from earlier work
DNA [2] = system: DNA; design: method as in PMID 33337517; conditions: 0.3 mg/kg; cited from earlier work
PC12 cells = conditions: 25–400 µM; cited from earlier work
SH-SY5Y cells = conditions: cited from earlier work
SN4741 cells = conditions: 25–400 µM; cited from earlier work
DNA [3] = experiment: Alkaline comet assay on nuclei from frontal cortex and hippocampus; assay type: in vivo, rat; conditions: for Damaging effect on DNA compared with 25I-NBOMe: frontal cortex and hippocampus, LSD 0.05 mg/kg, MDMA 5 mg/kg, 25I-NBOMe 0.3 mg/kg; for DNA damage (tail moment): vs control; for Tail moment after four injections compared with the acute one: 5 mg/kg ip × 4 vs acute
Experimental: Animals received single or multiple (once per day for seven days) subcutaneous injections of 25I-NBOMe dissolved in 0.9% NaCl at a dose of 0.3 mg/kg/2 ml. The control group was treated with 0.9% NaCl solution in the same way. All procedures were performed 72 h after the last injection. The time point of 72 h was chosen due to the possible generation of neurotoxicity via oxidative stress caused by reactive oxygen species (ROS). Exceptionally, for initial 25I-NBOMe brain distribution studies, rats received the drug in the dose of 1 and 10 mg/kg and were sacrificed 15 min after the drug administration. The rat blood plasma and brain tissues were collected immediately after rats’ decapitation. LSD (0.05 mg/kg, ip) was given daily for 7 days in a volume of 1 ml/kg, while MDMA 5 mg/kg, ip was injected in a volume of 2 ml/kg every second day (overall 4 injections).
The alkaline comet assay was performed with the use of CometAssay® Reagent Kit for Single Cell Gel Electrophoresis Assay. At 72 h after the acute and chronic treatment with 25I-NBOMe (0.3 mg/kg, sc × 7 days), LSD (0.05 mg/kg, ip × 7 days) or MDMA (5 mg/kg, ip × 4 doses every second day) animals were sacrificed by decapitation and the frontal cortex (that consist of the sum of FC and mPFC) and hippocampus were dissected. After homogenization and several purification and centrifugation stages (as described previously in[17]), the nuclear suspension was obtained using a sucrose gradient (2.8 M/2.6 M, bottom to top). The nuclear fraction was mixed with low melting point agarose and transferred immediately onto CometSlides™. The following steps, including membrane lysis, DNA unwinding, alkaline electrophoresis, and staining (SYBR® Gold), were carried out according to Trevigen CometAssay® protocol. Stained sections were acquired and analyzed under a fluorescence microscope (Nikon Eclipse50i, Japan) equipped with a camera and NIS Elements software. The data was analyzed using OpenComet software v.1.3 (cometbio.org), a plugin of ImageJ program v.1.47 (NIH, Bethesda, MD, USA). DNA damage was presented as a tail moment. Tail moment incorporates a measure of both the smallest detectable size of migrating DNA (reflected by the comet tail length) and the number of damaged pieces (represented by the intensity of DNA in the tail).

[4] = design: method as in PMID 20956470; conditions: cited from earlier work

SMILES: COc1cc(CCNCc2ccccc2OC)c(OC)cc1Br [25B-NBOMe]
- Neuronal activity [1]: decreased neuronal activity
- DNA damage in the rat frontal cortex (DNA [2]): potent in damaging DNA

SMILES: COc1cc(CCNCc2ccccc2OC)c(OC)cc1Cl [25C-NBOMe]
- Cell viability (PC12 cells): potent reduction
- Cell viability (SH-SY5Y cells; 25–400 µM): potent reduction
- Potency to reduce SH-SY5Y cells in respect to methamphetamine (SH-SY5Y cells): 50 times
- Cell viability (SN4741 cells): potent reduction

SMILES: CCN(CC)C(=O)[C@@H]1C=C2c3cccc4[nH]cc(c34)C[C@H]2N(C)C1 [LSD, lysergic acid diethylamide]
- Damaging effect on DNA compared with 25I-NBOMe (DNA [3]): weaker in its damaging effect on DNA than 25I-NBOMe
- DNA damage after chronic administration compared with a single dose (DNA [3]; frontal cortex, 0.05 mg/kg ip × 7 vs single, 72 h): significantly greater after chronic administration
- DNA damage (tail moment) (DNA [3]; frontal cortex, single and 7-day treatment 0.05 mg/kg ip, 72 h): caused DNA damage
- DNA damage after repeated injections compared with a single dose (DNA [3]; hippocampus, 0.05 mg/kg ip × 7 vs single, 72 h): higher DNA damage than the single dose
- DNA damage (tail moment) (DNA [3]; hippocampus, acute and chronic (× 7) 0.05 mg/kg ip, 72 h): significant increase in the tail moment value

SMILES: CNC(C)Cc1ccc2c(c1)OCO2 (centres unmarked) [MDMA, 3,4-methylenedioxymethamphetamine]
- Damaging effect on DNA compared with 25I-NBOMe (DNA [3]): nearly equal to 25I-NBOMe in oxidative damage of DNA
- Tail moment after four injections compared with the acute one (DNA [3]; frontal cortex, 72 h): stronger increase in the tail moment value
- DNA damage (tail moment) (DNA [3]; frontal cortex, acute and chronic (4 injections every second day) 5 mg/kg ip, 72 h): exhibited DNA damaging properties
- Tail moment after four injections compared with the acute one (DNA [3]; hippocampus, 72 h): stronger increase in the tail moment value
- DNA damage (tail moment) (DNA [3]; hippocampus, acute and chronic (4 injections every second day) 5 mg/kg ip, 72 h): exhibited DNA damaging properties

SMILES: COc1cc(CCNCc2ccccc2OC)c(OC)cc1I [^11C-CIMBI-5]
- Location in brain shortly after intravenous injection [4]: located in the cortex and the lower range in the cerebellum
